[invAb] = inverted abasic unit; d = 2'-deoxy (DNA); m = 2'-O-methyl; r = 2'-OH (RNA); f = 2'-fluoro
Legend:
mSCNN1A mRNA = assay: Screening of ENaCα siNAs in mouse NIH 3T3 cells (quantitative RT-PCR); assay type: cell-based; set-up: Percent Reduction of the mSCNN1A mRNA relative to a non-targeting control siNA / Mouse % KD (efficacy of ENaCα mRNA knockdown): concentration or dose not given beside the values; details: for Mean (mSCNN1A expression normalized to the level of m36B4) / Percent Reduction of the mSCNN1A mRNA relative to a non-targeting control siNA / Avg ENaCα Expression (mSCNN1A) / Avg 36B4 Expression: mouse NIH 3T3 cells, n = 3; for Mean (mSCNN1A expression normalized to the level of m36B4) / Percent Reduction of the mSCNN1A mRNA relative to a non-targeting control siNA / Avg 36B4 Expression: 24 hours post-transfection; for Avg ENaCα Expression (mSCNN1A): harvested 24 hours post-transfection; for Avg 36B4 Expression: housekeeping gene used for normalisation
Method: siNA constructs (Table 1b) may be tested for efficacy in reducing ENaC RNA expression in, for example, A549 human lung carcinoma cells. A549 (human; ATCC cat# CCL-185) cells were cultured at 37° C. in the presence of 5% CO2 and grown in Ham's F12K medium with 2 mM L-glutamine adjusted to contain 1.5 g/L sodium bicarbonate and supplemented with fetal bovine serum at a final concentration of 10% and 100 U/mL penicillin. The A549 cells were plated approximately 24 hours before transfection in 96-well plates at 7,500 cells/well, 100 μl/well. After 24 hours complexes containing siNA and Lipofectamine 2000 (Invitrogen) were created as follows: a solution of Lipofectamine 2000 in OPTI-MEM was prepared containing Lipofectamine 2000 at a final concentration of 14 μg/ml. In parallel, solutions of the siNAs were prepared in OPTI-MEM at a final concentration of 150 nM. After both solutions were incubated at 20° C. for 20 minutes an equal volume of the siNA solutions and the Lipofectamine 2000 solution were added together for each of the siNAs. The resultant solution has the siNAs at a final concentration of 75 nM and Lipofectamine 2000 at a final concentration of 7 μg/ml. This solution was incubated at 20° C. for 20 minutes. After incubation 50 μl of the solution were added to each of the wells (in triplicate). The final concentration of siNA in each well was 25 nM and the final concentration of Lipofectamine 2000 in each well was 2.33 μg/ml. The plates were incubated for 48 hours with no change of media before harvesting. Dose response curves were determined in a similar manner with each concentration being done in triplicate and maintaining a constant amount of Lipofectamine 2000 in each transfection.
(§1) A series of probes and primers were used to detect the various mRNA transcripts of the genes of ENaCa and GAPDH in mouse, rat, and human cell lines. The assays were performed on an ABI 7500 instrument, according to the manufacturer's instructions. Within each experiment, the baseline was set in the exponential phase of the amplification curve, and based on the intersection point of the baselines with the amplification curve, a Ct value was assigned by the instrument. This Ct value was then assigned a QTY value based on the Standard Curve. The standard curve in the various experiments herein used 1 ng to 300 ng of RNA extracted from the same cell line used for the experimental transfections.
(§2) All IC50 values were calculated from the data using GraphPad Prizm software, specifically a sigmoidal, variable slope curve for simple ligand binding. Also, unless otherwise indicated, all calculations of the efficacy and potency (e.g., % knockdown) of the siNAs were done relative to a non-targeting control siNA. If reported, P-values were computed using The Students t-test, including the Welch Correction for unequal variances.
(§3) In all of the calculations of the % knock-down of mRNA, the calculation was made relative to the normalized level of expression of the gene of interest in the samples treated with the non-targeting control (NTC) unless otherwise indicated. The gene of interest expression level was divided by the level of expression of GAPDH or 36B4 (depending on the species) in each sample. The three replicates for each condition in each experiment were averaged and the standard deviation of those samples was calculated. The following formula was then used to calculate the % of knock-down of the gene of interest:
(§4) The ENaCα siNAs were designed and synthesized as described previously. The siNAs were screened in three cell lines. Human A549 cells, mouse NIH 3T3 and Rat H-4-II-E cells. The data from the screen of ENaCa siNAs in all three species is shown in Tables 3a, 3b, 4a, 4b, 5a, and 5b and a summary of the data for certain siNA molecules is presented in Table 6. Each screen was performed at 24 hrs. The decision to use this time point was based upon the degree of knockdown of the mRNA seen at that time point.

rSCNN1A (r ENaCα) mRNA = assay: Screening of ENaCα siNAs in Rat H-4-II-E cells (quantitative RT-PCR); assay type: cell-based; set-up: Percent Reduction of the r ENaCα mRNA relative to a non-targeting control siNA (NTCs) / Rat % KD (efficacy of ENaCα mRNA knockdown): concentration or dose not given beside the values; details: for Mean (rSCNN1A expression normalized to the level of rGAPDH) / Percent Reduction of the r ENaCα mRNA relative to a non-targeting control siNA (NTCs) / Avg ENaCα Expression (rSCNN1A) / Avg GAPDH Expression (rGAPDH): Rat H-4-II-E cells, n = 3; for Mean (rSCNN1A expression normalized to the level of rGAPDH) / Percent Reduction of the r ENaCα mRNA relative to a non-targeting control siNA (NTCs) / Avg GAPDH Expression (rGAPDH): 24 hours post-transfection; for Avg ENaCα Expression (rSCNN1A): harvested 24 hours post-transfection; for Avg GAPDH Expression (rGAPDH): housekeeping gene used for normalisation
Method: as §1, §2, §3, §4

Substance	Mean (mSCNN1A expression normalized to the level of m36B4) (mSCNN1A mRNA)	Percent Reduction of the mSCNN1A mRNA relative to a non-targeting control siNA (mSCNN1A mRNA)	Avg ENaCα Expression (mSCNN1A) (mSCNN1A mRNA)	Avg 36B4 Expression (mSCNN1A mRNA)	Mean (rSCNN1A expression normalized to the level of rGAPDH) (rSCNN1A (r ENaCα) mRNA)	Percent Reduction of the r ENaCα mRNA relative to a non-targeting control siNA (NTCs) (rSCNN1A (r ENaCα) mRNA)	Avg ENaCα Expression (rSCNN1A) (rSCNN1A (r ENaCα) mRNA)	Avg GAPDH Expression (rGAPDH) (rSCNN1A (r ENaCα) mRNA)	IC50 (mSCNN1A mRNA; mouse cell line, dose response, read-out: Mouse IC50 (potency of ENaCα mRNA knockdown))	Mouse % KD (efficacy of ENaCα mRNA knockdown) (mSCNN1A mRNA; mouse cell line, summary)	IC50 (rSCNN1A (r ENaCα) mRNA; rat cell line, dose response, read-out: Rat IC50 (potency of ENaCα mRNA knockdown))	Rat % KD (efficacy of ENaCα mRNA knockdown) (rSCNN1A (r ENaCα) mRNA; rat cell line, summary)
B AGuGuGGcuGuGccuAcAu TTB / AUGuAGGcAcAGccAcAcuUU (sense AGUGUGGCUGUGCCUACAUTT; antisense AUGUAGGCACAGCCACACUUU; siRNA; sense: DNA at AGT, 2'-fluoro at CU, [invAb] at 5' end, 3' end, backbone not given here; antisense: sugars from the 5' end rrrfmmmfmfmmffmfmffmm, backbone not given here) [Site 1382]	0.21	10.7%	2.94	13.77	0.84	34.5%	22.02	26.11	–	–	–	–
B GcuGuGccuAcAucuucuA TTB / UAGAAGAuGuAGGcAcAGcUU (sense GCUGUGCCUACAUCUUCUATT; antisense UAGAAGAUGUAGGCACAGCUU; siRNA; B caps on sense ends, letter-case modifications not given here, further chemistry not given here) [Site 1388]	0.04	73.4%	0.90	24.18	0.32	65.6%	11.65	37.10	1.9 nM	73%	0.9 nM	65%
B GuGGcuGuGccuAcAucuu TTB / AAGAuGuAGGcAcAGccAcUU (sense GUGGCUGUGCCUACAUCUUTT; antisense AAGAUGUAGGCACAGCCACUU; siRNA; sense: DNA at AGT, 2'-fluoro at CU, [invAb] at 5' end, 3' end, backbone not given here; antisense: sugars from the 5' end rrrmfmfmmmfmfmmffmfmm, backbone not given here) [Site 1385]	0.13	4.4%	2.95	22.75	0.58	36.7%	19.09	30.04	–	–	–	–
B cuGuGcAAccAGAAcAAAu TTB / AUUuGuucuGGuuGcAcAGUU (chain 1 CUGUGCAACCAGAACAAAUTT; chain 2 AUUUGUUCUGGUUGCACAGUU; siRNA; chain 1: DNA at AGT, 2'-fluoro at CU, [invAb] at 5' end, 3' end, backbone not given here; chain 2: sugars from the 5' end rrrfmffffmmffmfmfmmmm, backbone not given here) [Site 781]	0.22	9.8%	3.50	16.49	0.86	32.8%	23.09	26.57	–	–	–	–
B GGcuGuGccuAcAucuucu TTB / AGAAGAuGucGGcAcAGccUU (sense GGCUGUGCCUACAUCUUCUTT; antisense AGAAGAUGUCGGCACAGCCUU; siRNA; sense: DNA at AGT, 2'-fluoro at CU, [invAb] at 5' end, 3' end, backbone not given here; antisense: sugars from the 5' end rrrmmmfmffmmfmfmmffmm, backbone not given here) [Site 1387]	0.06	59.1%	1.37	24.37	0.71	23.3%	24.12	34.37	–	–	–	–
B uGGGcAGccAGuGGAGccu TTB / AGGcuccAcuGGcuGcccAUU (sense UGGGCAGCCAGUGGAGCCUTT; antisense AGGCUCCACUGGCUGCCCAUU; siRNA; sense: DNA at AGT, 2'-fluoro at CU, [invAb] at 5' end, 3' end, backbone not given here; antisense: sugars from the 5' end rrrffffmffmmffmfffmmm, backbone not given here) [Site 1751]	0.10	27.6%	2.85	28.97	0.59	36.0%	26.87	45.19	–	–	–	–
B AAccGCAuGAAGAcGGccu TTB / AGGccGucuucAuGcGGuuUU (chain 1 AACCGCAUGAAGACGGCCUTT; chain 2 AGGCCGUCUUCAUGCGGUUUU; siRNA; chain 1: sugars from the 5' end ddffdddfdddddfddfffdd, [invAb] at 5' end, 3' end, backbone not given here; chain 2: sugars from the 5' end rrrffmfffffmfmfmmffmm, backbone not given here) [Site 337]	0.24	0.8%	3.42	14.44	0.96	25.4%	16.40	17.17	–	–	–	–
B uGuccAAccuGGGcAGccA TTB / UGGcuGcccAGGuuGGAcAUU (sense UGUCCAACCUGGGCAGCCATT; antisense UGGCUGCCCAGGUUGGACAUU; siRNA; sense: DNA at AGT, 2'-fluoro at CU, [invAb] at 5' end, 3' end, backbone not given here; antisense: sugars from the 5' end rrrffmfffmmmffmmmfmmm, backbone not given here) [Site 1742]	0.14	1.0%	2.91	21.48	0.79	14.3%	28.30	35.68	–	–	–	–

Source: patent US20110288154A1, “RNA Interference Mediated Inhibition of Epithelial Sodium Channel (ENaC) Gene Expression Using Short Interfering Nucleic Acid (siNA)” (MERCK & CO., INC., priority 2008, published 2011)
